Article PMC5870139 (Journal of the American Chemical Society, 2018)

Molecular target: T1, TagT (Bacillus subtilis, UniProt Q7WY78)
T1 sequence (Q7WY78 1-322): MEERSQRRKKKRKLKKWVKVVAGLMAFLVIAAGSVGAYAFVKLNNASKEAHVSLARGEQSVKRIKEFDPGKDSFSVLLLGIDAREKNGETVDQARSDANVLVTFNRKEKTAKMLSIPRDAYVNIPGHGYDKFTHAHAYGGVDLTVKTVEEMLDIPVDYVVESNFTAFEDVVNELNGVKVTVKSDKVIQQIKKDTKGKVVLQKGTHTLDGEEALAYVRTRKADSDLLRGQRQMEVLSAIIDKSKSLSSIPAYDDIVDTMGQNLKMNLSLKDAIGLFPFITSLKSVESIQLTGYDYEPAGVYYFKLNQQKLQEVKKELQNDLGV
Test: transfer of radiolabelled WTA precursor, PAGE autoradiography
Format: biochemical
Details: acceptor; co-substrate LIIA^WTA

Structure (SMILES)	transfer of radiolabelled WTA precursor, PAGE autoradiography
CC(=O)N[C@H]1[C@H](O[C@H]2[C@H](O)[C@@H](NC(C)=O)[C@H](O[C@H]3[C@H](O)[C@@H](NC(C)=O)C(O)O[C@@H]3CO)O[C@@H]2CO)O[C@H](CO)[C@@H](O[C@@H]2O[C@H](CO)[C@@H](O[C@@H]3O[C@H](CO)[C@@H](O)[C@H](O)[C@H]3NC(C)=O)[C@H](O)[C@H]2NC(C)=O)[C@@H]1O (some centres unmarked) [n=3, chitin oligosaccharide containing five GlcNAcs]	LcpB and TagT transferred WTA onto chitin oligosaccharides containing five or more sugars
CC(=O)N[C@H]1[C@H](O[C@H]2[C@H](O)[C@@H](NC(C)=O)C(O[C@H]3[C@H](O)[C@@H](NC(C)=O)C(O[C@H]4[C@H](O)[C@@H](NC(C)=O)C(O[C@H]5[C@H](O)[C@@H](NC(C)=O)C(O[C@H]6[C@H](O)[C@@H](NC(C)=O)C(O)O[C@@H]6CO)O[C@@H]5CO)O[C@@H]4CO)O[C@@H]3CO)O[C@@H]2CO)O[C@H](CO)[C@@H](O)[C@@H]1O (some centres unmarked) [n=4, chitin oligosaccharide containing six GlcNAcs]	LcpB and TagT transferred WTA onto chitin oligosaccharides containing five or more sugars
